In article PMC5864910, “Mutacin 1140 Lantibiotic Variants Are Efficacious Against Clostridium difficile Infection” (Frontiers in Microbiology, 2018):
In brackets after ≈: the same amount, converted by molar mass. Where two headings read alike, the source gives them in different places. No end group written: not given here.

Tests used:
Mycobacterium phlei [1] = system: Mycobacterium phlei
BZD (central) [2] = assay: Safety Screen 44: BZD (central); format: binding, human
Kv Channel [3] = assay: Safety Screen 44: Kv Channel; format: binding, human
[4] = system: NMDA ion channel receptor; assay: Safety Screen 44: NMDA; format: binding, human
[5] = system: HepG2 human hepatocellular carcinoma cells
Protocol: The HepG2 cytotoxicity evaluation was performed by MB Research Labs (Spinnerstown, PA, United States) by the Neutral Red Uptake Bioassay of HepG2 human hepatocellular carcinoma cells in culture (ATCC #HB-8065). Briefly, HepG2 cells were seeded in the central 60 wells of 96-well plates and maintained in culture for approximately 24 h. Following pre-incubation, the culture medium was replaced with culture medium containing increasing concentrations of the test articles or control in the vehicle. Test articles were tested in triplicate wells, and reported as the mean. The cells were incubated for 24 h and cell viability was determined by Neutral Red (NR) uptake. For this assay, the medium was then replaced with NR medium (50 μg/mL NR in Hanks’ Balance Salt Solution, HBSS) and the cells were incubated for an additional 3 h. Following uptake of NR, the medium was discarded, the wells were washed with HBSS, and lysing solution (50:49:1 ethanol:water:acetic acid) was added subsequently to each well. The plates were placed on a rocker for 30 min until NR had been extracted from the cells and formed a homogeneous solution. The absorbance of each well was measured at 540 nm on a μQuant^TM plate reader (Bio-Tek Instruments) using KCjunior^TM software. The mean of the outer wells (DMEM2-FBS) was used as a reference control. The mean percent viability was determined for each concentration compared to the vehicle-treated control.

Ca2+ Channel [6] = assay: Safety Screen 44: Ca2+ Channel; format: binding, human
Nav Channel [7] = assay: Safety Screen 44: Nav Channel; format: binding, human
Nav Channel [8] = assay: Safety Screen 44: Nav Channel; format: binding, human; remark: listed apart in the source
Ca2+ Channel [9] = assay: Safety Screen 44: Ca2+ Channel; format: binding, human; remark: listed apart in the source
BZD (central) [10] = assay: Safety Screen 44: BZD (central); format: binding, human; remark: listed apart in the source
Kv Channel [11] = assay: Safety Screen 44: Kv Channel; format: binding, human; remark: listed apart in the source
Pseudomonas aeruginosa = assay: MIC broth dilution, P. aeruginosa; format: cell-based
Streptococcus pneumonia = assay: microbe, parasite or virus in culture; conditions: Streptococcus pneumoniae, read-out: MIC to S. pneumoniae
Staphylococcus aureus = conditions: n = 5 strains; unit from method b19
Mycobacterium phlei [12] = assay: microbe, parasite or virus in culture; conditions: Mycolicibacterium phlei
C. difficile UNT103-1 = assay: Cannulated Syrian hamster efficacy/relapse model of C. difficile infection (cHCDAD); format: in vivo, Golden Syrian hamsters; conditions: vancomycin 20 mg/Kg QD × 5 days, ileal canula, n = 6
Clostridium difficile = conditions: n = 3 strains; unit from method b19
C. difficile = system: C. difficile; design: method as in McBride and Sonenshein, 2011; conditions: ref McBride and Sonenshein, 2011, cited from earlier work

Molecule: C=C1NC(=O)[C@H](Cc2c[nH]c3ccccc23)NC(=O)[C@H](NC(=O)[C@H](CCCCN)NC(=O)[C@@H](N)Cc2ccccc2)CSC[C@@H](C(=O)N[C@H]2C(=O)N3CCC[C@H]3C(=O)NCC(=O)N[C@H](C(=O)N[C@@H](C)C(=O)N[C@@H](CCCNC(=N)N)C(=O)N/C(=C\C)C(=O)NCC(=O)N[C@@H]3CSC[C@@H]4NC(=O)[C@H](Cc5ccc(O)cc5)NC(=O)[C@@H](CS/C=C\NC4=O)NC(=O)[C@H](CC(N)=O)NC(=O)[C@H](Cc4ccc(O)cc4)NC3=O)CS[C@H]2C)NC(=O)[C@H](CC(C)C)NC1=O [F17Y]
- Minimum Inhibitory Concentration Mycobacterium phlei (Mycobacterium phlei [1]): 2 µg/mL
- Cerep SafetyScreen 44 % Inhibition BZD (central) (BZD (central) [2]): -10%
- Cerep SafetyScreen 44 % Inhibition Kv Channel (Kv Channel [3]): 2%
- Cerep SafetyScreen 44 % Inhibition NMDA ([4]; […]): 12%
- HepG2 EC50 ([5]; HepG2 cytotoxicity): 514 µg/mL
- Cerep SafetyScreen 44 % Inhibition Ca2+ Channel (Ca2+ Channel [6]): -7%
- Cerep SafetyScreen 44 % Inhibition Nav Channel (Nav Channel [7]): 2%

Molecule: C=C1NC(=O)[C@H](Cc2c[nH]c3ccccc23)NC(=O)[C@H](NC(=O)[C@H](CCCCN)NC(=O)[C@@H](N)Cc2ccccc2)CSC[C@@H](C(=O)N[C@H]2C(=O)N3CCC[C@H]3C(=O)NCC(=O)N[C@H](C(=O)N[C@@H](C)C(=O)N[C@@H](CCCNC(=N)N)C(=O)N/C(=C\C)C(=O)NCC(=O)N[C@@H]3CSC[C@@H]4NC(=O)[C@H](Cc5ccc(O)cc5)NC(=O)[C@@H](CS/C=C\NC4=O)NC(=O)[C@H](CC(N)=O)NC(=O)[C@H](Cc4ccccc4)NC3=O)CS[C@H]2C)NC(=O)[C@H](C)NC1=O [L6A]
- Minimum Inhibitory Concentration Mycobacterium phlei (Mycobacterium phlei [1]): 4 µg/mL
- Cerep SafetyScreen 44 % Inhibition Nav Channel (Nav Channel [8]): 8%
- Cerep SafetyScreen 44 % Inhibition NMDA [4]: 15%
- Cerep SafetyScreen 44 % Inhibition Ca2+ Channel (Ca2+ Channel [9]): 3%
- Cerep SafetyScreen 44 % Inhibition BZD (central) (BZD (central) [10]): -6%
- HepG2 EC50 ([5]; HepG2 cytotoxicity): 466 µg/mL
- Cerep SafetyScreen 44 % Inhibition Kv Channel (Kv Channel [11]): 8%

Molecule: C=C1NC(=O)[C@H](Cc2c[nH]c3ccccc23)NC(=O)[C@H](NC(=O)[C@H](CCCCN)NC(=O)[C@@H](N)Cc2ccccc2)CSC[C@@H](C(=O)N[C@H]2C(=O)N3CCC[C@H]3C(=O)NCC(=O)N[C@H](C(=O)N[C@@H](C)C(=O)N[C@@H](CCCNC(=N)N)C(=O)N/C(=C\C)C(=O)NCC(=O)N[C@@H]3CSC[C@@H]4NC(=O)[C@H](Cc5ccc(O)cc5)NC(=O)[C@@H](CS/C=C\NC4=O)NC(=O)[C@H](CC(N)=O)NC(=O)[C@H](Cc4ccccc4)NC3=O)CS[C@H]2C)NC(=O)[C@H]([C@@H](C)O)NC1=O [L6T]
- Minimum Inhibitory Concentration Mycobacterium phlei (Mycobacterium phlei [1]): 4 µg/mL
- HepG2 EC50 ([5]; 24 h): 541 µg/mL

Molecule: CC1COc2c(N3CCN(C)CC3)c(F)cc3c(=O)c(C(=O)O)cn1c23 (stereo not drawn) [Ofloxacin]
- MIC (Pseudomonas aeruginosa): 1000 µg/mL (≈ 2770 µM)

Molecule: C=C1NC(=O)[C@H](Cc2c[nH]c3ccccc23)NC(=O)[C@H](NC(=O)[C@H](CCCCN)NC(=O)[C@@H](N)Cc2ccccc2)CSC[C@@H](C(=O)N[C@H]2C(=O)N[C@@H](Cc3c[nH]cn3)C(=O)NCC(=O)N[C@H](C(=O)N[C@@H](C)C(=O)N[C@@H](CCCNC(=N)N)C(=O)N/C(=C\C)C(=O)NCC(=O)N[C@@H]3CSC[C@@H]4NC(=O)[C@H](Cc5ccc(O)cc5)NC(=O)[C@@H](CS/C=C\NC4=O)NC(=O)[C@H](CC(N)=O)NC(=O)[C@H](Cc4ccccc4)NC3=O)CS[C@H]2C)NC(=O)[C@H](CC(C)C)NC1=O [P9H]
- Minimum Inhibitory Concentration Mycobacterium phlei (Mycobacterium phlei [1]): 4 µg/mL
- HepG2 EC50 ([5]; 24 h): 218 µg/mL

Molecule: C=C1NC(=O)[C@H](Cc2c[nH]c3ccccc23)NC(=O)[C@H](NC(=O)[C@H](CCCCN)NC(=O)[C@@H](N)Cc2ccccc2)CSC[C@@H](C(=O)N[C@H]2C(=O)N3CCC[C@H]3C(=O)NCC(=O)N[C@H](C(=O)N[C@@H](C)C(=O)N[C@@H](C)C(=O)N/C(=C\C)C(=O)NCC(=O)N[C@@H]3CSC[C@@H]4NC(=O)[C@H](Cc5ccc(O)cc5)NC(=O)[C@@H](CS/C=C\NC4=O)NC(=O)[C@H](CC(N)=O)NC(=O)[C@H](Cc4ccccc4)NC3=O)CS[C@H]2C)NC(=O)[C@H](CC(C)C)NC1=O [R13A]
- Minimum Inhibitory Concentration Mycobacterium phlei (Mycobacterium phlei [1]): 8 µg/mL

Molecule: C=C1NC(=O)[C@H](Cc2c[nH]c3ccccc23)NC(=O)[C@H](NC(=O)[C@H](CCCCN)NC(=O)[C@@H](N)Cc2ccccc2)CSC[C@@H](C(=O)N[C@H]2C(=O)N3CCC[C@H]3C(=O)NCC(=O)N[C@H](C(=O)N[C@@H](C)C(=O)N[C@@H](CC(C)C)C(=O)N/C(=C\C)C(=O)NCC(=O)N[C@@H]3CSC[C@@H]4NC(=O)[C@H](Cc5ccc(O)cc5)NC(=O)[C@@H](CS/C=C\NC4=O)NC(=O)[C@H](CC(N)=O)NC(=O)[C@H](Cc4ccccc4)NC3=O)CS[C@H]2C)NC(=O)[C@H](CC(C)C)NC1=O [R13L]
- Minimum Inhibitory Concentration Mycobacterium phlei (Mycobacterium phlei [1]): 8 µg/mL

Molecule: C=C1NC(=O)[C@H](C)NC(=O)[C@H](NC(=O)[C@H](CCCCN)NC(=O)[C@@H](N)Cc2ccccc2)CSC[C@@H](C(=O)N[C@H]2C(=O)N3CCC[C@H]3C(=O)NCC(=O)N[C@H](C(=O)N[C@@H](C)C(=O)N[C@@H](CCCNC(=N)N)C(=O)N/C(=C\C)C(=O)NCC(=O)N[C@@H]3CSC[C@@H]4NC(=O)[C@H](Cc5ccc(O)cc5)NC(=O)[C@@H](CS/C=C\NC4=O)NC(=O)[C@H](CC(N)=O)NC(=O)[C@H](Cc4ccccc4)NC3=O)CS[C@H]2C)NC(=O)[C@H](CC(C)C)NC1=O [W4A]
- Minimum Inhibitory Concentration Mycobacterium phlei (Mycobacterium phlei [1]): 2 µg/mL
- HepG2 EC50 ([5]; 24 h): > 1001

Molecule: C=C1NC(=O)[C@H](C(C)C)NC(=O)[C@H](NC(=O)[C@H](CCCCN)NC(=O)[C@@H](N)Cc2ccccc2)CSC[C@@H](C(=O)N[C@H]2C(=O)N3CCC[C@H]3C(=O)NCC(=O)N[C@H](C(=O)N[C@@H](C)C(=O)N[C@@H](CCCNC(=N)N)C(=O)N/C(=C\C)C(=O)NCC(=O)N[C@@H]3CSC[C@@H]4NC(=O)[C@H](Cc5ccc(O)cc5)NC(=O)[C@@H](CS/C=C\NC4=O)NC(=O)[C@H](CC(N)=O)NC(=O)[C@H](Cc4ccccc4)NC3=O)CS[C@H]2C)NC(=O)[C@H](CC(C)C)NC1=O [W4V]
- Minimum Inhibitory Concentration Mycobacterium phlei (Mycobacterium phlei [1]): 4 µg/mL
- HepG2 EC50 ([5]; 24 h): > 1002

Molecule: CC1(C)S[C@@H]2[C@H](NC(=O)[C@H](N)c3ccccc3)C(=O)N2[C@H]1C(=O)O [ampicillin]
- MIC (Streptococcus pneumonia): 1 µg/mL (≈ 2.86 µM)

Molecule: CN[C@H](CC(C)C)C(=O)N[C@H]1C(=O)N[C@@H](CC(N)=O)C(=O)N[C@H]2C(=O)N[C@H]3C(=O)N[C@H](C(=O)N[C@H](C(=O)O)c4cc(O)cc(O)c4-c4cc3ccc4O)[C@H](O)c3ccc(c(Cl)c3)Oc3cc2cc(c3O[C@@H]2O[C@H](CO)[C@@H](O)[C@H](O)[C@H]2O[C@H]2C[C@](C)(N)[C@H](O)[C@H](C)O2)Oc2ccc(cc2Cl)[C@H]1O [vancomycin]
- MIC against S. aureus (range) (Staphylococcus aureus): 0.125 to 2 µg/mL
- MIC (Mycobacterium phlei [12]; read-out: MIC, M. phlei): 0.25 µg/mL (≈ 0.173 µM)
- MIC (Mycobacterium phlei [12]; read-out: Minimum Inhibitory Concentration Mycobacterium phlei): 250 µg/mL (≈ 173 µM)
- survival at day 21 (C. difficile UNT103-1): 33%
- MIC against C. difficile (range) (Clostridium difficile): 0.5 to 4 µg/mL

Molecule: gallidermin (IASKFLCTPGCAKTGSFNSYCC; thioether (positions not given here); also: lanthionine/methyllanthionine bridges, places not given here; UniProt P21838 31-52, looked up) [lantibiotic cited from literature]
- MIC increase of C. difficile (C. difficile; cpr resistance): 2–4 fold
- MIC of C. difficile (C. difficile; level after MIC increase (cpr)): ~1 µg/mL
